Reference: EP0520554A2, “C-21 hydroxylated FK-506 antagonist” (MERCK & CO. INC., priority 1991, dated 1992)

Tested on: mouse T-cells activated with ionomycin + PMA
Assay: T-cell proliferation assay (ionomycin plus PMA induced T-cell stimulation, tritiated thymidine uptake)
Format: cell-based, C57B1/6 mice
Procedure: The principle of this assay is to measure the proliferation of mouse T lymphocytes stimulated with the combination of ionomycin plus PMA. […] Cells were pelleted by centrifugation at 1500 rpm for 8 minutes. Contaminating red cells were removed by treating the pellet with ammonium chloride lysing buffer (GIBCO) for 2 minutes at 4°C. Cold medium was added and cells were again centrifuged at 1500 rpm for 8 minutes. T lymphocytes were then isolated by separation of the cell suspension on nylon wool columns as follows: Nylon wool columns were prepared by packing approximately 4 grams of washed and dried nylon wool into 20 ml plastic syringes. The columns were sterilized by autoclaving at 250°F for 30 minutes. Nylon wool columns were wetted with warm (37°C) culture medium and rinsed with the same medium. Washed spleen cells resuspended in warm medium were slowly applied to the nylon wool. The columns were then incubated in an upright position at 37°C for 1 hour. Non-adherent T lymphocytes were eluted from the columns with warm culture medium and the cell suspensions were spun as above. […] Ionomycin was added at 250 ng/ml and PMA at 10 ng/ml. The cell suspension was immediately distributed into 96 well flat-bottom microculture plates (Costar) at 200 µl/well. […] The proliferation of T lymphocytes was assessed by measurement of tritiated thymidine incorporation. After 44 hours of culturing, the cells were pulse-labelled with 2 µCi/well of tritiated thymidine (NEN, Cambridge, MA). After another 4 hours of incubation, cultures were harvested on glass fiber filters using a multiple sample harvester. Radioactivity of filter discs corresponding to individual wells was measured by standard liquid scintillation counting methods (Betacounter).

Row | Compound | inhibition at 0.01 µg/mL (Mus musculus, T-cell) [%] | inhibition at 0.0012 µM (Mus musculus, T-cell, read-out: % Inhibition + FK-506 (1.2 nM)) [%] | inhibition at 0.125 µg/mL (Mus musculus, T-cell, sample 125 ng/ml, no FK-506, tritiated thymidine uptake, harvest at 48 hours) [%] | inhibition at 0.25 µg/mL (Mus musculus, T-cell, sample 250 ng/ml, no FK-506, tritiated thymidine uptake, harvest at 48 hours) [%] | inhibition at 0.5 µg/mL (Mus musculus, T-cell, sample 500 ng/ml, no FK-506, tritiated thymidine uptake, harvest at 48 hours) [%] | inhibition at 1 µg/mL (Mus musculus, T-cell, sample 1000 ng/ml, no FK-506, tritiated thymidine uptake, harvest at 48 hours) [%] | % Inhibition + FK-506 (1.2 nM) (sample 125 ng/ml in presence of FK-506 1.2 nM, harvest at 48 hours) [%] | % Inhibition + FK-506 (1.2 nM) (sample 250 ng/ml in presence of FK-506 1.2 nM, harvest at 48 hours) [%]
1 | C=CC[C@@H]1/C=C(\C)C[C@H](C)C[C@H](OC)[C@H]2O[C@@](O)(C(=O)C(=O)N3CCCC[C@H]3C(=O)O[C@H](/C(C)=C/[C@@H]3CC[C@@H](O)[C@H](OC)C3)[C@H](C)[C@@H](O)CC1=O)[C@H](C)C[C@@H]2OC [FK-506] | 99 | 97 |  |  |  |  |  | 
2 | CCC1(O)C=C(C)CC(C)CC(OC)C2OC(O)(C(=O)C(=O)N3CCCCC3C(=O)OC(C(C)=CC3CCC(O)C(OC)C3)C(C)C(O)CC1=O)C(C)CC2OC (centres unmarked) [21-OH-590, C-21 hydroxylated FR-900520] |  |  | 0 | 0 | 0 | 0 | 94 | 63
